Laboratory results published in US5489612A, “Calixarene chloride-channel blockers” (The University of Alabama at Birmingham Research Foundation, priority 1994, dated 1996).
pKi: −log10 of the molar value. Like-named read-outs stand apart in the source and are kept apart here.

Tested on: colonic secretory chloride channel
Assay: Single chloride channels from rat colonic enterocyte plasma membrane vesicles incorporated into planar lipid bilayers; calixarene added to the cis (outer membrane) side
Format: biochemical
Details: for duration of the block periods: increases with size n of p-sulfonatocalix[n]arene; for MAXIMUM BLOCK PERIODS: single channel in PE:PS 7:3 planar bilayer; for MAXIMUM BLOCK PERIODS (block of channel): UPTO 100 μM
Procedure: In accordance with the methodology of Reinhardt et al., "Properties of an Anion-selective Channel from Rat Colonic Enterocyte Plasma Membranes Reconstituted into Planar Phospholipid Bilayers", J. Membrane Biol. 95: 47-54, 1987, calixarene derivatives were tested on single chloride channels incorporated into planar lipid bilayers. Plasma membrane vesicles derived from rat colonic enterocytes were used as a source of chloride channels. Properties of the colonic secretory chloride channel include one dominant open-state conductance, an outwardly rectified current-voltage relation with a zero voltage slope conductance of 50 pS in 150 mM Cl, a Cl to Na selectivity of at least 10:1, and a halide selectivity of I>Br>CI>F. Patch-clamp studies of several chloride secreting epithelia have identified an apical membrane chloride channel with identical biophysical properties. This channel is activated by CAMP and Ca mediated agonists and thus is considered a secretory chloride channel.
Chloride channels were incorporated into planar lipid bilayers of phosphatidylethanolamine and phosphatidylserine (PE:PS, 7:3) and data recorded according to known test methodology. See, Bridges et al., "Stilbene Disulfonate Blockade of Colonic Secretory Cl^- Channels in Planar Lipid Bilayers", Am. J. Physiol. 256 (Cell Physiol. 25): C902-C912, 1989. See also, Reinhardt et al. and Singh et al., supra.
Once a chloride channel was incorporated into the bilayer, baseline (control) channel activity was recorded for 5-15 minutes. The calixarenes were then added to the cis or outer membrane side of the channel and the channel activity recorded for an additional 5-15 minutes at each concentration. Because each channel serves as its own control, calixarene effects could be uniquely identified. In some experiments the cis compartment was exchanged with calixarene-free solution to test the reversibility of the calixarene-induced effects. Single channel records were stored on video tape and quantitatively evaluated by computer assisted analysis.

[1] = single channel in planar bilayer, Table 1, read-out: Ki (concentration causing a half-maximal inhibition)

SMILES	duration of the block periods [s]	MAXIMUM BLOCK PERIODS (Table 1) [s]	pKi [1]	pKi (read-out: concentration causing a half maximal decrease (K1) in Po (percent time channel in open state))	long-lived block periods, duration (at a concentration as low as 3 nM)	K1 (suggested from brief open periods between long blocks) (estimate)	MAXIMUM BLOCK PERIODS (block of channel)	blocking the chloride channel (even at a concentration as high as 100 μM)
O=S(=O)(O)c1cc2c(O)c(c1)Cc1cc(S(=O)(=O)O)cc(c1O)Cc1cc(S(=O)(=O)O)cc(c1O)Cc1cc(S(=O)(=O)O)cc(c1O)Cc1cc(S(=O)(=O)O)cc(c1O)Cc1cc(S(=O)(=O)O)cc(c1O)Cc1cc(S(=O)(=O)O)cc(c1O)Cc1cc(S(=O)(=O)O)cc(c1O)C2 [5,11,17,23,29,35,41,47-octasulfonatocalix[8]arene]	> 100	> 100	> 7.30	–	–	–	–	–
O=S(=O)(O)c1cc2c(O)c(c1)Cc1cc(S(=O)(=O)O)cc(c1O)Cc1cc(S(=O)(=O)O)cc(c1O)Cc1cc(S(=O)(=O)O)cc(c1O)Cc1cc(S(=O)(=O)O)cc(c1O)Cc1cc(S(=O)(=O)O)cc(c1O)C2 [5,11,17,23,29,35-hexasulfonatocalix[6]arene]	30 to 40	30 to 40	6.30 to 6.40	–	–	–	–	–
O=S(=O)(O)c1cc2c(O)c(c1)Cc1cc(S(=O)(=O)O)cc(c1O)Cc1cc(S(=O)(=O)O)cc(c1O)Cc1cc(S(=O)(=O)O)cc(c1O)C2 [5,11,17,23-TETRASULFONATO-CALIX[4]ARENE, 5,11,17,23-tetrasulfonato-calix[4]arene]	3 to 4	3 to 4	6.05 to 6.10	> 6.00	–	–	–	–
COc1c2cc(S(=O)(=O)O)cc1Cc1cc(S(=O)(=O)O)cc(c1OC)Cc1cc(S(=O)(=O)O)cc(c1OC)Cc1cc(S(=O)(=O)O)cc(c1OC)C2 [5,11,17,23-tetrasulfonato-25,26,27,28-tetramethoxy-calix[4]arene]	–	> 100	> 8.52	–	several hundred	subnanomolar	–	–
COc1c2cccc1Cc1cccc(c1OC)Cc1cccc(c1OC)Cc1cccc(c1OC)C2 [25,26,27,28-TETRAMETHOXY-CALIX[4]ARENE, reference compound]	–	–	–	–	–	–	NO BLOCK	–
Oc1c2cccc1Cc1cccc(c1O)Cc1cccc(c1O)Cc1cccc(c1O)C2 [CALIX[4]ARENE, Calix[4]arene, reference compound]	–	–	–	–	–	–	NO BLOCK	completely ineffective
